# Patent US12708116B2, “Herbicidal compositions comprising 2,4-D” (BASF SE, priority 2023, dated 2026)
# Experiments:
# Assay in all cases: Post-emergence application in field trials
# [1] = tested on: ZEAMX; settings: growth stage 15-16
# [2] = tested on: SETVI; assay type: in vivo, Setaria viridis; settings: 15 DAT; g ai/ha A-1 12.5, B-5 1066, C-10 840; growth stage 13-19; height 2-18 cm; water volume 140 l/ha
# [3] = tested on: ECHCG; assay type: in vivo, Echinochloa crus-galli
# [4] = tested on: CYPES; settings: 21 DAT, water volume 140 l/ha
# [5] = tested on: HORVW; settings: growth stage 23-29, height 20-25 cm
# [6] = tested on: PORPI; assay type: in vivo; settings: 8 DAT; g ai/ha A-1 25, B-5 1066; height 2-8 cm; water volume 140 l/ha
# [7] = tested on: GLXMA; assay type: in vivo, Glycine max; settings: Example 4; 21 DAT; g ai/ha A-1 12.5, B-5 1066; growth stage 13; height 5-8 cm
# [8] = tested on: AMATU; assay type: in vivo, Amaranthus tuberculatos; settings: 8 DAT; g ai/ha A-1 12.5, B-5 1066; growth stage 19; height 10-20 cm; water volume 140 l/ha
# [9] = tested on: AMAPA
# [10] = tested on: DIGSA
# [11] = tested on: SETVE; settings: growth stage 21-23
# [12] = tested on: AMARE; assay type: in vivo, Amaranthus retroflexus; settings: 8 DAT; g ai/ha A-1 25, B-5 1066; growth stage 19; height 10-20 cm; water volume 140 l/ha
# [13] = tested on: DATST
smiles,measurement,setting,value
"C[N+](C)(C)CCO.O=C([O-])COc1ccc(Cl)cc1Cl [B-5, 2,4-D choline]",% Herbicidal activity,"[1]; Example 4, 7 DAT, g ai/ha A-1 18, B-5 1066, height 50-60 cm",7%
same,% Herbicidal activity,"[1]; Example 4, 21 DAT, g ai/ha A-1 12.5, B-5 1066, height 50-60 cm",10%
same,% Herbicidal activity,"[1]; Example 6, 7 DAT, g ai/ha A-1 12.5, B-5 1066, C-11 400, height 25-30 cm",0%
same,% Herbicidal activity,"[1]; Example 6, 28 DAT, g ai/ha A-1 12.5, B-5 1066, C-11 400, height 50-60 cm",0%
same,% Herbicidal activity,"[1]; Example 8, 28 DAT, g ai/ha A-1 12.5, B-5 1066, C-12 252, height 50-60 cm",0%
same,% Herbicidal activity,[2],27%
same,% Herbicidal activity,"[3]; 13 DAT, g ai/ha A-1 12.5, B-5 1066, C-10 840, growth stage 21-26, height 15-30 cm, water volume 187 l/ha",0%
same,% Herbicidal activity,"[3]; 13 DAT, g ai/ha A-1 25, B-5 1066, C-10 840, growth stage 21-26, height 15-30 cm, water volume 187 l/ha",0%
same,% Herbicidal activity,"[3]; 13 DAT, g ai/ha A-1 50, B-5 1066, C-10 840, growth stage 21-26, height 15-30 cm, water volume 187 l/ha",0%
same,% Herbicidal activity,"[3]; Example 4, 21 DAT, g ai/ha A-1 12.5, B-5 1066, growth stage 23-30, height 15-20 cm",0%
same,% Herbicidal activity,"[3]; Example 6, 7 DAT, g ai/ha A-1 12.5, B-5 1066, C-11 400, growth stage 23-30, height 15-20 cm",0%
same,% Herbicidal activity,"[3]; Example 6, 28 DAT, g ai/ha A-1 12.5, B-5 1066, C-11 400, growth stage 23-30, height 15-20 cm",0%
same,% Herbicidal activity,"[3]; Example 8, 7 DAT, g ai/ha A-1 12.5, B-5 1066, C-12 252, growth stage 23-30, height 15-20 cm",0%
same,% Herbicidal activity,"[3]; Example 8, 21 DAT, g ai/ha A-1 12.5, B-5 1066, C-12 252, growth stage 23-30, height 15-20 cm",0%
same,% Herbicidal activity,"[3]; Example 8, 28 DAT, g ai/ha A-1 12.5, B-5 1066, C-12 252, growth stage 23-30, height 15-20 cm",0%
same,% Herbicidal activity,"[3]; Example 10, 21 DAT, g ai/ha A-1 12.5, B-5 1066, C-4 12.5, growth stage 23-30, height 15-20 cm",0%
same,% Herbicidal activity,"[4]; g ai/ha A-1 12.5, B-5 1066, C-11 655",0%
same,% Herbicidal activity,"[4]; g ai/ha A-1 50, B-5 1066, C-11 655",0%
same,% Herbicidal activity,"[4]; g ai/ha A-1 50, B-5 1066",0%
same,% Herbicidal activity,"[5]; Example 4, 21 DAT, g ai/ha A-1 12.5, B-5 1066",0%
same,% Herbicidal activity,"[5]; Example 6, 28 DAT, g ai/ha A-1 12.5, B-5 1066, C-11 400",0%
same,% Herbicidal activity,"[5]; Example 8, 21 DAT, g ai/ha A-1 12.5, B-5 1066, C-12 252",0%
same,% Herbicidal activity,"[5]; Example 10, 21 DAT, g ai/ha A-1 12.5, B-5 1066, C-4 12.5",0%
same,% Herbicidal activity,[6],50%
same,% Herbicidal activity,[7],55%
same,% Herbicidal activity,[8],83%
same,% Herbicidal activity,"[9]; 13 DAT, g ai/ha A-1 25, B-5 1066, growth stage 16, height 15-25 cm, water volume 187 l/ha",53%
same,% Herbicidal activity,"[9]; 14 DAT, g ai/ha A-1 12.5, B-5 1066, C-10 840, growth stage 12-24, height 5-30 cm, water volume 140 l/ha",66%
same,% Herbicidal activity,"[9]; 14 DAT, g ai/ha A-1 25, B-5 1066, C-10 840, growth stage 12-24, height 5-30 cm, water volume 140 l/ha",66%
same,% Herbicidal activity,"[9]; 19 DAT, g ai/ha A-1 12.5, B-5 1066, growth stage 16, height 15-25 cm, water volume 187 l/ha",55%
same,% Herbicidal activity,"[9]; 19 DAT, g ai/ha A-1 25, B-5 1066, growth stage 16, height 15-25 cm, water volume 187 l/ha",55%
same,% Herbicidal activity,"[9]; 19 DAT, g ai/ha A-1 50, B-5 1066, growth stage 16, height 15-25 cm, water volume 187 l/ha",55%
same,% Herbicidal activity,"[9]; 21 DAT, g ai/ha A-1 12.5, B-5 1066, growth stage 12-28, height 7-20 cm, water volume 140 l/ha",63%
same,% Herbicidal activity,"[9]; 21 DAT, g ai/ha A-1 50, B-5 1066, height 5-23 cm, water volume 140 l/ha",78%
same,% Herbicidal activity,"[10]; 14 DAT, g ai/ha A-1 12.5, B-5 1066, height 2-8 cm, water volume 140 l/ha",0%
same,% Herbicidal activity,"[10]; 14 DAT, g ai/ha A-1 25, B-5 1066, height 2-8 cm, water volume 140 l/ha",0%
same,% Herbicidal activity,"[10]; 14 DAT, g ai/ha A-1 50, B-5 1066, height 2-8 cm, water volume 140 l/ha",0%
same,% Herbicidal activity,"[10]; 15 DAT, g ai/ha A-1 12.5, B-5 1066, C-10 840, growth stage 13-19, height 2-13 cm, water volume 140 l/ha",27%
same,% Herbicidal activity,"[10]; 21 DAT, g ai/ha A-1 12.5, B-5 1066, C-11 655, height 2-8 cm, water volume 140 l/ha",0%
same,% Herbicidal activity,"[10]; 21 DAT, g ai/ha A-1 12.5, B-5 1066, height 2-8 cm, water volume 140 l/ha",0%
same,% Herbicidal activity,"[10]; 21 DAT, g ai/ha A-1 25, B-5 1066, C-11 655, height 2-8 cm, water volume 140 l/ha",0%
same,% Herbicidal activity,"[10]; 21 DAT, g ai/ha A-1 25, B-5 1066, height 2-8 cm, water volume 140 l/ha",0%
same,% Herbicidal activity,"[10]; 21 DAT, g ai/ha A-1 50, B-5 1066, C-11 655, height 2-8 cm, water volume 140 l/ha",0%
same,% Herbicidal activity,"[10]; 21 DAT, g ai/ha A-1 50, B-5 1066, height 2-8 cm, water volume 140 l/ha",0%
same,% Herbicidal activity,"[10]; Example 6, 7 DAT, g ai/ha A-1 12.5, B-5 1066, C-11 400, growth stage 21-22, height 15-20 cm",20%
same,% Herbicidal activity,"[10]; Example 6, 21 DAT, g ai/ha A-1 12.5, B-5 1066, C-11 400, growth stage 21-22, height 15-20 cm",20%
same,% Herbicidal activity,"[11]; Example 4, 21 DAT, g ai/ha A-1 12.5, B-5 1066, height 8-16 cm",25%
same,% Herbicidal activity,"[11]; Example 6, 7 DAT, g ai/ha A-1 12.5, B-5 1066, C-11 400, height 10-15 cm",15%
same,% Herbicidal activity,"[11]; Example 6, 21 DAT, g ai/ha A-1 12.5, B-5 1066, C-11 400, height 10-15 cm",0%
same,% Herbicidal activity,[12],83%
same,% Herbicidal activity,"[13]; Example 4, 7 DAT, g ai/ha A-1 12.5, B-5 1066",35%
same,% Herbicidal activity,"[13]; Example 6, 21 DAT, g ai/ha A-1 12.5, B-5 1066, C-11 400",40%
